The values below come from PMC4161160 (Journal of Medicinal Chemistry, 2014).

Values joined by “and” are separate entries in the source; they are usually repeats but may differ in a detail not shown here. Equal entries are not always repeated. Where two headings read alike, the source gives them in different places.

The nature of series [1]: Microsomal stability assay, human liver microsomes. The settings on record: for T1/2 in human liver microsomes: 0.5 μM compound, 1 mg/mL microsomal protein; for Fold improvement of metabolic stability in human microsomes: compared to parent SMART compound. In kind it is in vitro ADME. On the technique in general: Microsomes from liver hold many membrane-bound enzymes, among them those of drug oxidation.

Series [2] in a line: Microsomal stability assay, mouse liver microsomes. In kind it is in vitro ADME. The note with it: 0.5 μM compound, 1 mg/mL microsomal protein.
Series [3] can be described thus: Microsomal stability assay, rat liver microsomes. The note with it: 0.5 μM compound, 1 mg/mL microsomal protein. In kind it is in vitro ADME.
Another series has as its target Bovine brain tubulin (Bos taurus, UniProt P81947+Q6B856). As to the kind of experiment: In vitro tubulin polymerization assay. In kind it is biochemical. The note with it: for Inhibition of tubulin polymerization: 20 min incubation, compared to vehicle.
The nature of series [4]: Metabolite identification in human liver microsomes. In kind it is in vitro ADME. The settings on record: 50 μM compound, 1 mg/mL microsomal protein, high resolution MS.
The conditions of series [5]: cited from earlier work.
For series [6] the following is noted: cited from earlier work. The source holds these as a separate data set.
A further series concerns A375. As to the kind of experiment: Antiproliferative SRB assay, A375 melanoma cells. In kind it is cell-based. The settings on record: compared to SMART compound 10 and 4. Background: The SRB assay estimates cell density from bound dye.
A further series relates to LNCaP. As to the kind of experiment: Antiproliferative SRB assay, LNCaP prostate cancer cells. In kind it is cell-based, human. The settings on record: compared to SMART compound 10 and 4.
Series [7] in a line: Microsomal stability, over the tested liver microsome species. In kind it is in vitro ADME. The settings on record: mouse, rat.
For a further series, the system named is prostate cancer cells. As to the kind of experiment: Antiproliferative activity, prostate cancer cells overall. In kind it is cell-based, human. The settings on record: compared to parent PAT compound.

Bovine brain tubulin, sequence (Q6B856 whole entry): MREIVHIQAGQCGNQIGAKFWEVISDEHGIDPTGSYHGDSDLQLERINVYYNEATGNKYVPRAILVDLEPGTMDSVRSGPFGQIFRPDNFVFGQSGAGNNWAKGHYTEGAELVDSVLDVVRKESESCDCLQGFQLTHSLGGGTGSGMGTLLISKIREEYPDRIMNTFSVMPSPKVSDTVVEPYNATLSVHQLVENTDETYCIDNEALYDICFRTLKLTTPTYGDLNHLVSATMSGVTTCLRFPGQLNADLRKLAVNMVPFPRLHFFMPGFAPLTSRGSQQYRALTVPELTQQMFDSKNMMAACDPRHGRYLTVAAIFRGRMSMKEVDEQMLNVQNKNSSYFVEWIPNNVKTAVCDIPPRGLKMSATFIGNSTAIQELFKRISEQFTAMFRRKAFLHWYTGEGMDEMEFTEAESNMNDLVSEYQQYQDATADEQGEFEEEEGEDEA
Bovine brain tubulin, sequence (P81947 whole entry): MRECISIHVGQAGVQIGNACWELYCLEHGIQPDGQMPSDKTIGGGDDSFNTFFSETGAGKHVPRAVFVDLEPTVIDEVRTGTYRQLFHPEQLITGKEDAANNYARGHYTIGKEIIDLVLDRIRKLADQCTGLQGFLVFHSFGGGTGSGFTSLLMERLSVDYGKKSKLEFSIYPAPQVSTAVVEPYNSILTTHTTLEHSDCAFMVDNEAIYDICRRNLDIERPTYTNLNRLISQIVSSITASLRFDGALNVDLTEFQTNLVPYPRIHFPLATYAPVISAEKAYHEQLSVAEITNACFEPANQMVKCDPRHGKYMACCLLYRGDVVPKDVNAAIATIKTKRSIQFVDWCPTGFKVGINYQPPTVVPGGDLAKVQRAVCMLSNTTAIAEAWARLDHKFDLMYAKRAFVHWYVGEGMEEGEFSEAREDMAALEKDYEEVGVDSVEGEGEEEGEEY

For the molecule “2-(1H-Indol-3-yl)-4-(3,4,5-trimethoxyphenyl)-1H-benzo[d]imidazole [compound 4]”, the “T1/2 in human liver microsomes” value in series [1] is 0.85 h and 0.845 ± 0.02 h. Also, in series [1], the “Fold improvement of metabolic stability in human microsomes” value is on record as 2–3 fold. Moreover, the “T1/2 in mouse liver microsomes” value in series [2] came out at 0.892 ± 0.04 h. In addition, in series [3], the “T1/2 in rat liver microsomes” value was found to be 1.2 ± 0.0767 h. The “Inhibition of tubulin polymerization” value at Bovine brain tubulin (5 μM) worked out at 30%; at Bovine brain tubulin (10 μM) it was 60%. For the same molecule, in series [4], the “Major metabolites / metabolic pathway” value is “o-demethylation (M9) and monohydroxylation (M10) are the major products”.

Consider `COc1cc(C(=O)c2csc(Nc3ccccc3)n2)cc(OC)c1OC` [PAT], for which, in [5], the Oral bioavailability was 21%. Moreover, the “Oral bioavailability (F)” value in series [5] (reference not given) is over 30%.

Take `COc1cc(C(=O)c2csc(-c3ccccc3)n2)cc(OC)c1OC` [SMART 10]: the “T1/2 in mouse liver microsomes” value in series [6] was “≪5 min”.

Consider `COc1cc(-c2nccc3[nH]c(-c4ccc5[nH]ccc5c4)nc23)cc(OC)c1OC` [compound 7, 2-(1H-Indol-5-yl)-4-(3,4,5-trimethoxyphenyl)-1H-imidazo[4,5-c]pyridine], for which the “Fold improvement of IC50 against A375” value in the series on A375 is recorded as “at least 5 fold”. Besides, the “Fold improvement of IC50 against LNCaP” value in the series with LNCaP is given as “at least 5 fold”. Further, in series [1], the “Fold improvement of metabolic stability in human microsomes” value is 2–3 fold. The inhibition at 5 µM at Bovine brain tubulin (read-out: Inhibition of tubulin polymerization) was about 33%. Moreover, the “Major metabolites / metabolic pathway” value in [4] was “M14 is the major metabolite”.

In [7] (human, liver microsomes, pH 7.4), `COCOc1c(OC)cc(C(=O)c2csc(-c3ccccc3)n2)cc1OC` [compound 15, (3,5-Dimethoxy-4-(methoxymethoxy)phenyl)(2-phenylthiazol-4-yl)methanone] gave a half-life at 0.5 μM of under 0.167 h. Further, the “Major metabolites / metabolic pathway” value in [4] was “removal of the MOM group to form M1 is the major metabolic pathway”.

Turning to `COc1cc(C(=O)c2csc(Nc3ccc4[nH]ccc4c3)n2)cc(OC)c1OC` [compound 33, (2-((1H-Indol-5-yl)amino)thiazol-4-yl)(3,4,5-trimethoxyphenyl)methanone], the “Fold change of IC50 on prostate cancer cells” value with prostate cancer cells is on record as 2–3 fold.

For the molecule “(4-(2-Aminoethyl)-3,5-dimethoxyphenyl)(2-phenylthiazol-4-yl)methanone [compound 18]”, in series [1], the “T1/2 in human liver microsomes” value amounted to 1.833 ± 0.0917 h. The “T1/2 in mouse liver microsomes” value in series [2] is 2.05 ± 0.128 h. The “T1/2 in rat liver microsomes” value in [3] was 3.75 ± 0.21 h. Besides, the “T1/2 in the tested liver microsomes species” value in series [7] (summary over human) was 1.83 to 3.75 h. Moreover, in series [4], the “Major metabolites / metabolic pathway” value was “M6 (dealkylation) and M8 (ketone reduction) are the major metabolites”.

For orientation: inhibition means the drop in the measured response relative to a control, in per cent. One may read the half-life as how long it takes for the measured level to halve.
